Laboratory results from patent publication US6491922B1, “Methods and compounds for treating autoimmune and vascular disease” (Cornell Research Foundation, Inc., priority 1996, dated 2002).

Key:
TNF-α transcription = assay: Nuclear run-on assay, TNF-α transcription; format: cell-based, human; settings: LPG 1 μM pretreatment; LPS 1 μg/ml
[1] = tested on: murine nitric oxide synthase activity; assay: Nitrite production (Griess assay) in RAW 264.7 cells; format: cell-based
Experimental: RAW 264.7 cells were treated with LPG 1 μM and simultaneously stimulated with endotoxin and mIFN-γ. Supernatants from each treatment condition were removed at 24, 48, and 72 hours, and nitrite production was measured by the Griess assay.
To determine whether LPG can alter NOS expression, a well characterized murine macrophage cell line, RAW 264.7 cells, were used to measure NOS activity. […] Because macrophages encounter LPG usually in the context of entry of the parasite, it was examined whether Leishmania promastigotes, upon entry into macrophages, transfer LPG onto the macrophage cell surfaces and inhibit nitrite production. L. donovani prosmastigotes (“Ld3”) within 15 minutes of attachment to human monocytes, THP-1 cells, or murine peritoneal macrcophages transferred LPG onto the surface of the macrophages, as determined by a monoclonal antibody against LPG and indirect fluorescent microscopy. Two hours after entering murine peritoneal macrophages, Ld3 promastigoes suppressed endotoxin- and IFN-γ induction of NOS activity; the inhibition was parasite dose dependent.

lipophosphoglycan [LPG]
suppression of endotoxin-mediated TNF-α transcription (TNF-α transcription): −70% | effect on nitrite production ([1]; RAW 264.7, LPG 1 μM simultaneous with endotoxin and IFN-γ): inhibited the enhancement of nitrite production | reversal of the inhibition by higher amounts of agonists ([1]; higher amounts of endotoxin and IFN-γ): could not reverse
